One substance from patent US11266715B2, “C3A receptor agonists for use against ischemic brain injury, stroke, traumatic brain injury, spinal cord injury and neurodegenerative disorders” (priority 2016, dated 2022) can be followed below.

The test system of this assay is mice subjected to neonatal HI injury. Put plainly: Object recognition test after neonatal HI injury, 3 days intranasal treatment. The format is in vivo, mouse. Here is the method: In the short-term study (3 days of intranasal treatment), 3 groups of WT mice were used; animals subjected to neonatal HI injury and treated with either C3a (HI-C3a, n=18) or PBS (HI-PBS, n=18) and sham-operated animals treated with PBS (SHAM-PBS, n=19). These mice were tested in an open field and object recognition test (ORT) at P50-P54 and brains were collected at P55 (FIG. 8A).
Neonatal HI injury was induced on postnatal day 9 (P9), as previously described with modifications for mice (Hedtjärn et al., 2002; Rice et al., 1981; Sheldon et al., 1998). Mice were anesthetized with 3.5% isoflurane (Baxter Medical, Kista, Sweden) for induction and 1.5% thereafter, in 1:1 oxygen and nitrous oxide. The left common carotid artery was dissected and permanently ligated with a prolene suture (6.0). The incision was closed and infiltrated with lidocaine (Xylocain®, Astra Zeneca, Gothenburg, Sweden). Mice were returned to the dam for 1 hour and then placed in a chamber with humidified air at 36° C. for 10 min, then exposed to humidified 10% oxygen in nitrogen for 30 min at 36° C., and then kept in humidified air at 36° C. for 10 min before being returned to the dam. Sham animals were subjected to an incision in the neck on P9. These pups were also removed from the dam for the time duration that injured animals stayed in the chamber, but remained instead in a warming tray at 36° C. under normal oxygen conditions. At postnatal day 21 (P21) mice were weaned and group housed with same sex littermates.
Purified human C3a (Complement Technology Inc., Tyler, Tex., USA) was diluted in sterile phosphate buffered saline (PBS) to a concentration of 200 nM, and a total of 8 μl i.e. […] (4 μl/nostril; corresponding to ca. 2.56 μg/kg body weight) of peptide solution or PBS was given intranasally to awake and hand-restrained mice held in a supine position. Solutions were administered through a pipette tip, drop-wise in 2 μl-portions divided by 1 min intervals to allow for absorption. […] C3a or PBS was given every 24 hours for three (short-term study) or seven (long-term study) days starting 1 h after HI induction, i.e. between P9 and P11 or P9 and P15, respectively. Mice in each litter were randomly assigned to C3a or PBS treatment. Sham animals received PBS. The investigators carrying out behavioural studies and analysing data were blinded to treatment group.
The object recognition test is based on the innate preference of mice to explore a novel object rather than a familiar one. Therefore, animals that remember the familiar object will spend more time exploring the novel object (Leger et al., 2013). From 3 days before starting the test, mice were daily handled for 2 min to minimize the possible stress due the researcher interaction. All experiments were performed at the same time of the day, between 9 am and […], and inside of a plastic box of 50×50×50 cm dimensions where the light intensity was dim and equal in all parts of the apparatus. […] Prior to the familiarization session, during which two identical objects were introduced, mice were habituated to the apparatus for 10 min during 3 consecutive days. Activity on the first habituation day was recorded as an open field test to assess locomotor and exploratory activities. During the familiarization session, two identical 250 ml bottles filled with shredded paper were placed at an equal distance from the arena walls (approximately 5 cm). […]

Turning to “C3a: Purified human C3a peptide (Complement Technologies), C3a receptor agonist, amino acid sequence SEQ ID NO: 1”, for the setting “C3a treated mice p<0.05”, the “time exploring novel vs familiar object, long-term memory (24 h)” value is “significantly longer time exploring the novel compared to familiar object”. Besides, the “exploratory behavior in the familiarization phase” value (intranasal C3a 3 days from 1 h post-HI) is listed as “not altered”. For the same substance, the “time exploring the novel object, short-term memory (6 h), vs PBS-treated mice post-HI” value (p<0.01) is “spent more time exploring the novel object”. Further, under “p<0.05”, the “total object exploration time, long-term memory (24 h), vs PBS” value is reported as “longer” and the “total object exploration time, short-term memory (6 h), vs PBS” value is given as “longer total object exploration time”.
